As a reminder, the IC50 is the midpoint of a concentration-inhibition curve.

The target of this assay is T1, human recombinant, purified wild type His-B-Raf protein kinase (Homo sapiens, UniProt P15056).
T1 construct: His
Nature of the assay: B-Raf In Vitro ELISA Assay. In kind it is biochemical. The conditions noted are these: phosphorylation of MEK1; 2.5 nM B-Raf, 0.15 μM MEK1, 10 μM ATP; 1 hour preincubation at 25° C. The protocol: B-Raf In Vitro ELISA Assay
Activity of human recombinant, purified wild type His-B-Raf protein kinase was determined in vitro using an enzyme-linked immunosorbent assay (ELISA) assay format, which measures phosphorylation of the B-Raf substrate, human recombinant, purified His-derived (detagged) MEK1. The reaction utilized 2.5 nM B-Raf, 0.15 μM MEK1 and 10 μM adenosine triphosphate (ATP) in 40 mM N-(2-Hydroxyethyl)piperazine-N′-(2-ethanesulfonic acid hemisodium salt (HEPES), […] 1,4-Dithio-DL-threitol (DTT), 10 mM MgCl2, 1 mM ethylenediaminetetraacetic acid (EDTA) and 0.2 M NaCl (1×HEPES buffer), with or without compound at various concentrations, in a total reaction volume of 25 μl in 384 well plates. B-Raf and compound were preincubated in 1×HEPES buffer for 1 hour at 25° C. Reactions were initiated with addition of MEK1 and ATP in 1× HEPES buffer and incubated at 25° C. for 50 minutes and reactions stopped by addition of 10 μl 75 mM EDTA (final concentration […]) in 1×HEPES buffer. 5 μl of the assay mix was then diluted 1:20 into 50 mM EDTA in 1×HEPES buffer, transferred to 384 well black high protein binding plates and incubated overnight at 4° C. […] Blue fluorescent product was detected at excitation 325 nm and emission 420 nm using a TECAN Ultra plate reader. Data was graphed and IC50s calculated using Excel Fit (Microsoft).
On the technique in general: An ELISA detects its analyte on a solid surface through an enzyme-linked reagent.

T1 sequence (P15056 whole entry): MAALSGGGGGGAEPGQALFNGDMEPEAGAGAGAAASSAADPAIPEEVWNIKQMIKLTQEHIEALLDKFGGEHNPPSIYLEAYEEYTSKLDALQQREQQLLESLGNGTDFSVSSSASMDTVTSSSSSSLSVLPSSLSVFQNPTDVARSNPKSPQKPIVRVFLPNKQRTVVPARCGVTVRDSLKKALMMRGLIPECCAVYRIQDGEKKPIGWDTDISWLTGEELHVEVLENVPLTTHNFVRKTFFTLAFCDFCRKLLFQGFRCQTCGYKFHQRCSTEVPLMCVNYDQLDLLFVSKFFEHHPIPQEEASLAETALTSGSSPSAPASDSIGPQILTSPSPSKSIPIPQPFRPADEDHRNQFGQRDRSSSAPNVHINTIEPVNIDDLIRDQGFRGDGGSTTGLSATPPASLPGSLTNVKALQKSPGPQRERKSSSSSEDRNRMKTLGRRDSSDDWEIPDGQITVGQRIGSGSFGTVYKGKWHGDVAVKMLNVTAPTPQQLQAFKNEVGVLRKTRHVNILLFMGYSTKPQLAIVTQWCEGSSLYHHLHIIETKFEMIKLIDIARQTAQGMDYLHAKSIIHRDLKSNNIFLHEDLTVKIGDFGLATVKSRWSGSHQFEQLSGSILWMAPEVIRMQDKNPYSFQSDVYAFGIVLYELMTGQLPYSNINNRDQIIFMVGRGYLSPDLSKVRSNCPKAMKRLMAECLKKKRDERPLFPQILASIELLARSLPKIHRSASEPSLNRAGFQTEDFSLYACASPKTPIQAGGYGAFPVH

Turning to `CCc1cccc(C(=O)Nc2ccc(C)c(NC(=O)c3ccc4nccnc4c3)c2)c1` [Example 11, N-{5-[(3-Ethylbenzoyl)amino]-2-methylphenyl}quinoxaline-6-carboxamide], the IC50 came out at 742 nM.

As for `CCCOc1cccc(C(=O)Nc2ccc(C)c(NC(=O)c3ccc4nccnc4c3)c2)c1` [Example 12, N-{2-Methyl-5-[(3-propoxybenzoyl)amino]phenyl}quinoxaline-6-carboxamide], the IC50 came to 20 nM.
